Laboratory results as given in patent US12139492B2 (Endotarget Inc., priority 2021, dated 2024).

Columns and labels:
Format in all cases: cell-based
BTK = BTK (Homo sapiens, UniProt Q06187); test: BTK degradation, DC50 and Dmax of Table 1 (cell line not given); design: endogenous in cells; conditions: for DC50: concentration giving 50% reduction of BTK expression level
Mino cells = test: Antiproliferative effect, MTS cell viability assay, Mino cells; conditions: Homo sapiens, MINO, Mino mantle cell lymphoma cells; read-out: IC50 (anti-proliferation) Mino cells
Procedure, shortened: (§1)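 Readout was MTS-derived formazan absorbance (490 nm) reflecting metabolically active cells. Treatment lasted 72 h over a 0–10 μM range (0.001, 0.01, 0.1, 1, 10 μM) in JeKo-1 and Mino B-cell malignancy cells.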

JeKo-1 cells = test: Antiproliferative effect, MTS cell viability assay, JeKo-1 cells; conditions: Homo sapiens; JeKo-1 mantle cell lymphoma cells; read-out: IC50 (anti-proliferation) JeKO-1 cells
Procedure, shortened: as §1

Sequence of BTK (Q06187 whole entry): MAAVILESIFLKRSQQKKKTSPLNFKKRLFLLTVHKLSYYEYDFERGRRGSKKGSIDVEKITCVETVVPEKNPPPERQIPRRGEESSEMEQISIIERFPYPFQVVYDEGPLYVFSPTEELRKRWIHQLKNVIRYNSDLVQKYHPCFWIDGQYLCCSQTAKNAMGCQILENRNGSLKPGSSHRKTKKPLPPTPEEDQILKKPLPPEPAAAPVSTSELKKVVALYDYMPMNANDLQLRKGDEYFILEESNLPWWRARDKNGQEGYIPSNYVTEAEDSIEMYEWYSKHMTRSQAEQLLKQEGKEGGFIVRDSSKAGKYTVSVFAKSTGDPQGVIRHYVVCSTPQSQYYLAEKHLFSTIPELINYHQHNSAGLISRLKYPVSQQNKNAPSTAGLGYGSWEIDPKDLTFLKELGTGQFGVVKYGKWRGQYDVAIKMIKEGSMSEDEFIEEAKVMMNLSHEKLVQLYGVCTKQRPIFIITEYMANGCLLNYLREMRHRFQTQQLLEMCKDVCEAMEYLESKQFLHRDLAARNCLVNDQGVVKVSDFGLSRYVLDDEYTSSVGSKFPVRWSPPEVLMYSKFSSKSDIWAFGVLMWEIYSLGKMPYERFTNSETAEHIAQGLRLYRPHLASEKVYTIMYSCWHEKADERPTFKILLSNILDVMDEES

Dmax (BTK)	DC50 (BTK)	SMILES	IC50 (Mino cells)	IC50 (JeKo-1 cells)
> 75%	10 to 50 nM	Nc1ncnc2c1c(-c1ccc(Oc3ccccc3)cc1)nn2[C@@H]1CCCN(CC2CCN(CCCN3CCN(c4ccc5c(c4)CN(C4CCC(=O)NC4=O)C5=O)CC3)CC2)C1 (stereo partly drawn) [Compound 138, 3-(5-(4-(3-(4-(((R)-3-(4-amino-3-(4-phenoxyphenyl)-1H-pyrazolo[3,4-d]pyrimidin-1-yl)piperidin-1-yl)methyl)piperidin-1-yl)propyl)piperazin-1-yl)-1-oxoisoindolin-2-yl)piperidine-2,6-dione]	1000 to 10000 nM	> 10000 nM
> 90%	10 to 50 nM	Nc1ncnc2c1c(-c1ccc(Oc3ccccc3)cc1)nn2[C@@H]1CCCN(CC2CCN(CCN3CCN(c4ccc5c(c4)C(=O)N(C4CCC(=O)NC4=O)C5=O)CC3)CC2)C1 (stereo partly drawn) [Compound 133, 5-(4-(2-(4-(((R)-3-(4-amino-3-(4-phenoxyphenyl)-1H-pyrazolo[3,4-d]pyrimidin-1-yl)piperidin-1-yl)methyl)piperidin-1-yl)ethyl)piperazin-1-yl)-2-(2,6-dioxopiperidin-3-yl)isoindoline-1,3-dione]	< 1000 nM	1000 to 10000 nM
> 90%	< 10 nM	Nc1ncnc2c1c(-c1ccc(Oc3ccccc3)cc1)nn2[C@@H]1CCCN(C(=O)N2CCN(CCC3CCN(c4ccc5c(c4)CN(C4CCC(=O)NC4=O)C5=O)CC3)CC2)C1 (stereo partly drawn) [Compound 68, 3-(5-(4-(2-(4-((R)-3-(4-amino-3-(4-phenoxyphenyl)-1H-pyrazolo[3,4-d]pyrimidin-1-yl)piperidine-1-carbonyl)piperazin-1-yl)ethyl)piperidin-1-yl)-1-oxoisoindolin-2-yl)piperidine-2,6-dione]	1000 to 10000 nM	1000 to 10000 nM
> 75%	10 to 50 nM	Nc1ncnc2c1c(-c1ccc(Oc3ccccc3)cc1)nn2[C@@H]1CCCN(CC2CCN(CCN3CCN(c4ccc5c(c4)CN(C4CCC(=O)NC4=O)C5=O)CC3)CC2)C1 (stereo partly drawn) [Compound 134, 3-(5-(4-(2-(4-(((R)-3-(4-amino-3-(4-phenoxyphenyl)-1H-pyrazolo[3,4-d]pyrimidin-1-yl)piperidin-1-yl)methyl)piperidin-1-yl)ethyl)piperazin-1-yl)-1-oxoisoindolin-2-yl)piperidine-2,6-dione]	1000 to 10000 nM	1000 to 10000 nM
> 75%	< 10 nM	Nc1ncnc2c1c(-c1ccc(Oc3ccccc3)cc1)nn2[C@@H]1CCCN(CC2CCN(CCN3CCC(c4ccc5c(c4)CN(C4CCC(=O)NC4=O)C5=O)CC3)CC2)C1 (stereo partly drawn) [Compound 136, 3-(5-(1-(2-(4-(((R)-3-(4-amino-3-(4-phenoxyphenyl)-1H-pyrazolo[3,4-d]pyrimidin-1-yl)piperidin-1-yl)methyl)piperidin-1-yl)ethyl)piperidin-4-yl)-1-oxoisoindolin-2-yl)piperidine-2,6-dione]	< 1000 nM	1000 to 10000 nM
> 90%	10 to 50 nM	Nc1ncnc2c1c(-c1ccc(Oc3ccccc3)cc1)nn2C1CCN(C(=O)N2CCC(CCN3CCC(c4ccc5c(c4)C(=O)N(C4CCC(=O)NC4=O)C5=O)CC3)CC2)CC1 (stereo not shown) [Compound 103, 5-(1-(2-(1-(4-(4-amino-3-(4-phenoxyphenyl)-1H-pyrazolo[3,4-d]pyrimidin-1-yl)piperidine-1-carbonyl)piperidin-4-yl)ethyl)piperidin-4-yl)-2-(2,6-dioxopiperidin-3-yl)isoindoline-1,3-dione]	> 10000 nM	1000 to 10000 nM
> 75%	> 50 nM	Nc1ncnc2c1c(-c1ccc(Oc3ccccc3)cc1)nn2C1CCN(C(=O)N2CCC(N3CCC(c4ccc5c(c4)CN(C4CCC(=O)NC4=O)C5=O)CC3)CC2)CC1 (stereo not shown) [Compound 84, 3-(5-(1′-(4-(4-amino-3-(4-phenoxyphenyl)-1H-pyrazolo[3,4-d]pyrimidin-1-yl)piperidine-1-carbonyl)-[1,4′-bipiperidin]-4-yl)-1-oxoisoindolin-2-yl)piperidine-2,6-dione]	> 10000 nM	> 10000 nM
> 75%	> 50 nM	Nc1ncnc2c1c(-c1ccc(Oc3ccccc3)cc1)nn2[C@@H]1CCCN(C2CCN(CCC3CCN(c4ccc5c(c4)CN(C4CCC(=O)NC4=O)C5=O)CC3)CC2)C1 (stereo partly drawn) [Compound 146, 3-(5-(4-(2-((R)-3-(4-amino-3-(4-phenoxyphenyl)-1H-pyrazolo[3,4-d]pyrimidin-1-yl)-[1,4′-bipiperidin]-1′-yl)ethyl)piperidin-1-yl)-1-oxoisoindolin-2-yl)piperidine-2,6-dione]	1000 to 10000 nM	> 10000 nM
> 75%	10 to 50 nM	Nc1ncnc2c1c(-c1ccc(Oc3ccccc3)cc1)nn2C1CCCN(CCOCCN2CCC(c3ccc4c(c3)C(=O)N(C3CCC(=O)NC3=O)C4=O)CC2)C1 (stereo not shown) [Compound 15, 5-(1-(2-(2-(3-(4-amino-3-(4-phenoxyphenyl)-1H-pyrazolo[3,4-d]pyrimidin-1-yl)piperidin-1-yl)ethoxy)ethyl)piperidin-4-yl)-2-(2,6-dioxopiperidin-3-yl)isoindoline-1,3-dione]	1000 to 10000 nM	1000 to 10000 nM
> 90%	< 10 nM	Nc1ncnc2c1c(-c1ccc(Oc3ccccc3)cc1)nn2C1CCCN(CCOCCOCCN2CCN(c3ccc4c(c3)C(=O)N(C3CCC(=O)NC3=O)C4=O)CC2)C1 (stereo not shown) [Compound 3, 5-(4-(2-(2-(2-(3-(4-amino-3-(4-phenoxyphenyl)-1H-pyrazolo[3,4-d]pyrimidin-1-yl)piperidin-1-yl)ethoxy)ethoxy)ethyl)piperazin-1-yl)-2-(2,6-dioxopiperidin-3-yl)isoindoline-1,3-dione]	1000 to 10000 nM	1000 to 10000 nM
> 75%	10 to 50 nM	Nc1ncnc2c1c(-c1ccc(Oc3ccccc3)cc1)nn2[C@@H]1CCCN(C2CCN(C(=O)N3CCN(CCN4CCC(c5ccc6c(c5)C(=O)N(C5CCC(=O)NC5=O)C6=O)CC4)CC3)CC2)C1 (stereo partly drawn) [Compound 179, 5-(1-(2-(4-((R)-3-(4-amino-3-(4-phenoxyphenyl)-1H-pyrazolo[3,4-d]pyrimidin-1-yl)-[1,4′-bipiperidine]-1′-carbonyl)piperazin-1-yl)ethyl)piperidin-4-yl)-2-(2,6-dioxopiperidin-3-yl)isoindoline-1,3-dione]	1000 to 10000 nM	> 10000 nM
> 75%	> 50 nM	Nc1ncnc2c1c(-c1ccc(Oc3ccccc3)cc1)nn2C1CCN(C(=O)N2CCN(CCCN3CCN(c4ccc5c(c4)C(=O)N(C4CCC(=O)NC4=O)C5=O)CC3)CC2)CC1 (stereo not shown) [Compound 119, 5-(4-(3-(4-(4-(4-amino-3-(4-phenoxyphenyl)-1H-pyrazolo[3,4-d]pyrimidin-1-yl)piperidine-1-carbonyl)piperazin-1-yl)propyl)piperazin-1-yl)-2-(2,6-dioxopiperidin-3-yl)isoindoline-1,3-dione]	1000 to 10000 nM	> 10000 nM
> 90%	10 to 50 nM	Nc1ncnc2c1c(-c1ccc(Oc3ccccc3)cc1)nn2C1CCN(C(=O)N2CCC(CC3CCN(c4ccc5c(c4)C(=O)N(C4CCC(=O)NC4=O)C5=O)CC3)CC2)CC1 (stereo not shown) [Compound 89, 5-(4-((1-(4-(4-amino-3-(4-phenoxyphenyl)-1H-pyrazolo[3,4-d]pyrimidin-1-yl)piperidine-1-carbonyl)piperidin-4-yl)methyl)piperidin-1-yl)-2-(2,6-dioxopiperidin-3-yl)isoindoline-1,3-dione]	< 1000 nM	1000 to 10000 nM
